Counter-ions that a name gives are not always drawn.
Tests used:
in vitro = conditions: human
Protocol: THLE-2 (CRL-2706™) were grown in the BEGM Bullet Kit (CC-3170) from Lonza. Besides the additives contained in the kit, the medium was further supplemented with 5 ng/mL EGF (Sigma), 70 ng/mL phosphoethanolamine (Sigma) and 10% FBS (Biological Industries). The plates for the THLE-2 needed to be pre-coated with a mixture of 0.01 mg/mL fibronectin, 0.05 mg/mL of PureCol™ EZ Gel Solution (Sigma) and 0.01 mg/mL of BSA dissolved in BEBM medium (Lonza). The coating medium was aspirated before seeding.
THLE-2 cells were exposed to the compounds in a 9-point, 2-fold dilution dose response series with a 100 μM as upper limit, for 72 h. Following the 72 h of exposure to the test compounds, cell viability was determined by measuring the concentration of cellular ATP (CellTiter Glo, Promega). The luminescence signal was measured on a Pherastar FS multi-mode plate reader (BMG Labtech). Each data point was tested in a triplicate.
First, toxicity was assessed in an ATP depletion assay, using THLE-2 cells following a 72 h exposure to a dose response of each of the tested compounds.

[1] = Pharmacokinetic study, p.o. and i.v.; type: in vivo, mouse
5×FAD mice = test: Open field in 5×FAD mice; type: in vivo, mouse
Protocol: Mice were individually placed within a cage and taken to a dimly lit room containing an open field arena 50×50 cm in size. They were given 10 min prior to being placed within the arena, where for a period of 5 min they were allowed to explore. Two weeks later, this was repeated. […] The floor was either white or black, depending on mouse coat color, to allow automatic analysis of movement parameters, apart from rearing which was manually counted.

HCT116 QR2Δ cells = test: H2DCFDA detection of cellular ROS in HCT116 QR2Δ cells; type: cell-based, human; conditions: 20 μM, 3 h
From the text: Additional details of the knockout procedure and corresponding figures have been previously published. Disruption of the NQO2 gene at positions 46 and 108 within exon 4 was done using CRISPR/Cas9 dual nickase (plasmid pSpCas9n(BB)-2A-Puro (PX462), Addgene #48141). The target sequence was selected using a CRISPR design tool (http://crispr.mit.edu/), which identified the guide sequences with the least off-targets. Vectors NQ024_46 and NQ024_108 were produced by cloning oligonucleotides corresponding to guide RNA (sgRNA) into PX462 as previously described. The vectors were then transfected into HCT 116 cells (at 70% confluence) using Lipofectamine 2000 (Life Technologies), and 24 h later 0.7 μg/mL puromycin (Alfa Aesar) was added to the media for 72 h. Cells that survived were then collected and serially diluted into 96 well plates, with puromycin supplemented media, to enable selection and expansion of plasmid containing colonies two weeks later.
(§1) The cells were harvested and resuspended in 1% clear medium (DMEM—with no phenol red, supplemented with 1% FBS, 1% L-Glutamine and 1% Penicillin-Streptomycin). […] The plate was then incubated in the dark at 37° C. for 3 h, before reading in a Tecan M200 Pro florescence microplate reader, using wavelengths Ex/Em=485 nm/535 nm.

HEK293 cells = test: DCFDA ROS measurement in HEK293 cells after H2O2 insult; type: cell-based; conditions: HEK293, 2 mM H2O2, 3 h
Protocol: FIGS. 8A-8C include vertical bar graphs showing QR2 inhibition reduces QR2 activity and ROS following induction of oxidative stress in HEK293 cells. (8A) QR2 activity is seen and is inhibited within HEK293 cells, amongst others, as measured by the rate of fluorescent co-factor oxidation. (8B) HEK293 cells seeded at 25μ 10^3 cells/well in 96-well plates were treated with 2 mM H2O2 with or without increasing doses or QR2 inhibitors for 3 h. Following incubation, the cells were stained with DCFDA for 45 min, and ROS levels were measured using a fluorimeter with ex/em 485/535 nm. N=3. (8C) ROS was measured in HCT cells, and similarly to HEK293, is reduced following QR2 inhibition. […] Data presented as mean±SEM. *p<0.05, ***p<0.0005.
as §1, with “Penicillin-Streptomycin). A sterile poly-L-lysine-coated Nunc black, 96-well, clear flat-bottomed plate (Thermo Fisher Scientific) was seeded with 25,000 cells in 100 μL per well and incubated overnight. The next day, the medium was removed, and the wells carefully washed with PBS.” for “Penicillin-Streptomycin).”

QR1 (NQO1) = target: T1, QR1 (NQO1) (Homo sapiens, UniProt P15559); test: Selectivity assay with QR1 in place of QR2, absorbance readout; type: biochemical
T1 construct: purchased Sigma-Aldrich
T1 sequence (P15559 whole entry): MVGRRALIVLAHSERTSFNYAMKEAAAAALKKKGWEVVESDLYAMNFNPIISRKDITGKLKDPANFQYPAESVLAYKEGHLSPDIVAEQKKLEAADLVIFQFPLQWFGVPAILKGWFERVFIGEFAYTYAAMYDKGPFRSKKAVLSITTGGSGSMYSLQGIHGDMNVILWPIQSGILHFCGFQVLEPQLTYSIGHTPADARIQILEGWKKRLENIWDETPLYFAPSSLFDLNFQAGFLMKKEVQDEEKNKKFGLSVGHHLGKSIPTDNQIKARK

With `Cc1ccc(-c2cn3cccc(C)c3n2)cc1S(=O)(=O)N1CCNCC1` [YB-537, 8-methyl-2-(4-methyl-3-(piperazin-1-ylsulfonyl)phenyl)imidazo[1,2-a]pyridine hydrochloride] the IC50 at 72 h (in vitro) was > 99 µM, the half-life ([1]; C57BL/6J, mouse, in vivo, po, p.o. 50 mg/kg, male mice, read-out: clearance rate half-life) was 1 h and the brain clearance half-life ([1]; acute oral dosing, mouse brain) was ~1 h. The “peak concentration in brain” value ([1]; male, C57BL/6J, mouse, in vivo, po) was 203 ng/g, the bioavailability ([1]; p.o. 50 mg/kg, male mice) was 82% and the brain clearance half-life ([1]; p.o., male mouse brain) was 1.06 h. For the same compound, the “time of peak in brain following p.o. administration” value ([1]; p.o., male mouse brain) was ~1 h, the average velocity (5×FAD mice; 5×FAD both sexes) was 10.9 ± 0.800 cm/s and the hind-limb rearing frequency (5×FAD mice; 5×FAD both sexes) was 35.72±3.292. For the same compound, the “maximum movement bout duration” value (5×FAD mice; 5×FAD both sexes) was 8.061 ± 1.322 s, the meandering (5×FAD mice; 5×FAD both sexes) was 733.4±42.8 deg/cm and the “proportion of time moving” value (5×FAD mice; 5×FAD both sexes) was 81.44±1.134%. The total distance traveled (5×FAD mice; 5×FAD both sexes) was 3244±237.9 cm, the total movement duration (5×FAD mice; 5×FAD both sexes) was 244.3 ± 3.402 s and the average velocity (5×FAD mice; 5×FAD females) was 12.03 ± 1.625 cm/s. The hind-limb rearing frequency (5×FAD mice; 5×FAD females) was 35.29±4.894, the “maximum movement bout duration” value (5×FAD mice; 5×FAD females) was 9.677 ± 3.012 s and the meandering (5×FAD mice; 5×FAD females) was 696.3±65.26 deg/cm. For the same compound, the “proportion of time moving” value (5×FAD mice; 5×FAD females) was 81.84±1.856%, the total distance traveled (5×FAD mice; 5×FAD females) was 3581±484.5 cm and the total movement duration (5×FAD mice; 5×FAD females) was 245.5 ± 5.568 s. The average velocity (5×FAD mice; 5×FAD males) was 10.01 ± 0.611 cm/s, the hind-limb rearing frequency (5×FAD mice; 5×FAD males) was 36.06±4.703 and the “maximum movement bout duration” value (5×FAD mice; 5×FAD males) was 6.804 s. The meandering (5×FAD mice; 5×FAD males) was 762.2±58.17 deg/cm, the “proportion of time moving” value (5×FAD mice; 5×FAD males) was 81.13±1.5% and the total distance traveled (5×FAD mice; 5×FAD males) was 2983±179.3 cm. For the same compound, the total movement duration (5×FAD mice; 5×FAD males) was 243.4 ± 4.5 s.
With `Cc1cccn2cc(-c3cccc(S(=O)(=O)N4CCC(C)CC4)c3)nc12` [YB-800] the “baseline ROS levels” value (HCT116 QR2Δ cells) was −0.009±0.049 AU, the “ROS levels after ROS insult (DCFDA)” value (HEK293 cells) was “reduced in a dose dependent manner” and the IC50 (QR1 (NQO1)) was > 9.99 µM.

— patent US20240228481A1, “NOVEL SULFONAMIDE SERIES OF QR2 INHIBITORS TO TACKLE OXIDATIVE STRESS AND COGNITIVE DECLINE” (CARMEL HAIFA UNIVERSITY ECONOMIC CORPORATION LTD., priority 2021, published 2024)
